# Results published in patent US7718611B2, “Cyclic nonapeptide amides” (priority 2004, dated 2010).
# Where two headings read alike, the source gives them in different places. Starred links: 1 amine or outer side, 2 acyl side, 3 side chain; linkers in the order of their positions; H or OH if unused. Positions of bridges follow the written chain, without caps; N, C: chain ends. Non-standard residues stand in square brackets, D forms with d. Residues, ends and D or L forms follow the SMILES beside them. Phe(3R-OH) = O=C([C@@H](N[*:1])[C@H](O[*:3])c1ccccc1)[*:2]; Phe(βR-NH) = O=C([C@@H](N[*:1])[C@H](N[*:3])c1ccccc1)[*:2]; X2 = O=C([C@H](Cc1ccc(C(F)(F)F)nc1)N[*:1])[*:2]; Asn(3S-OH) = NC(=O)[C@@H](O)[C@H](N)C(=O)O; Leu(3R-OH) = CC(C)[C@@H](O)[C@H](N)C(=O)O; X1 = Cc1cccc(C[C@H](N[*:1])C(=O)[*:2])n1; dAla(TMS) = C[Si](C)(C)C[C@@H](N)C(=O)O; d(tBuAla) = CC(C)(C)C[C@@H](N)C(=O)O; tBuAla = CC(C)(C)C[C@H](N)C(=O)O; 3Pal = N[C@@H](Cc1cccnc1)C(=O)O; aThr = C[C@H](O)[C@H](N)C(=O)O
# How the values were obtained:
# [1] = system: E. faecalis ICB 27159; format: cell-based, Entercococcus faecalis
# Procedure: (§1) Determination of the Minimum Inhibitory Concentration (MIC):
# (§2) The MIC is determined in the liquid dilution test in accordance with the NCCLS guidelines. Overnight cultures of Staphylococcus aureus 133, Entercococcus faecalis 27159, E. faecium and Streptococcus pneumoniae G9a are incubated with the described test substances in a 1:2 dilution series. The MIC determination is carried out with a cell count of 10^5 microorganisms per ml in Isosensitest medium (Difco, Irvine/USA), with the exception of S. pneumoniae which is tested in BHI broth (Difco, Irvine/USA) with 10% bovine serum at a cell count of 10^6 microorganisms per ml. The cultures are incubated at 37° C. for 18-24 hours, S. pneumoniae in the presence of 10% CO2.
# (§3) The lowest substance concentration in each case at which visible bacterial growth […] is defined as the MIC. The MIC values are reported in μg/ml.
# [2] = system: Staphylococcus aureus 133; format: cell-based
# Procedure: as §1, §2, §3
# [3] = system: Streptococcus pneumoniae G9a; format: cell-based
# Procedure: as §1, §2, §3
# [4] = system: E. faecium L4001; format: cell-based
# Procedure: as §1, §2, §3
# [5] = Isosensitest medium, 10^5 microorganisms per ml, 37° C., 18-24 hours
# [6] = BHI broth with 10% bovine serum, 10^6 microorganisms per ml, 37° C., 18-24 hours, 10% CO2
SMILES,"MIC E. faecalis ICB 27159 [1, 5] [µg/mL]","MIC S. aureus 133 [2, 5] [µg/mL]","MIC S. pneumoniae G9a [3, 6] [µg/mL]","MIC E. faecium L4001 [4, 5] [µg/mL]",MIC E. faecalis ICB 27159 ([1]; ICB 27159) [µg/mL],MIC S. aureus 133 [2]; 133 [µg/mL],MIC S. pneumoniae G9a ([3]; G9a) [µg/mL],MIC E. faecium L4001 ([4]; L4001) [µg/mL]
CC[C@H](C)[C@@H]1NC(=O)[C@@H](CCCNC(=N)N)NC(=O)[C@H](CC(C)C)NC(=O)[C@H]([C@H](O)C(C)C)NC(=O)[C@@H](NC(=O)[C@H](Cc2cccnc2)NC(=O)[C@H](N)C[Si](C)(C)C)[C@@H](c2ccccc2)NC(=O)[C@H](CO)NC(=O)[C@H]([C@H](O)C(N)=O)NC(=O)CNC(=O)[C@H]([C@H](C)O)NC1=O.O=C(O)C(F)(F)F.O=C(O)C(F)(F)F.O=C(O)C(F)(F)F [Example 3] (H-[dAla(TMS)][3Pal][Phe(βR-NH)][Leu(3R-OH)]L[dR]I[aThr]G[Asn(3S-OH)]S; lactam 3-C),2,0.125,0.25,,,,,
"CC[C@H](C)[C@@H]1NC(=O)[C@@H](CCCNC(=N)N)NC(=O)[C@H](CC(C)C)NC(=O)[C@H]([C@H](O)C(C)C)NC(=O)[C@@H](NC(=O)[C@H](CC(C)(C)C)NC(=O)[C@H](N)CC(C)(C)C)[C@@H](c2ccccc2)NC(=O)[C@H](CO)NC(=O)[C@H]([C@H](O)C(N)=O)NC(=O)CNC(=O)[C@H]([C@H](C)O)NC1=O [Example 1, [3-tert-Butyl-D-alanyl]-[3-tert-butyl-L-alanyl]-[(3R)-3-amino-L-phenylalanyl)]-[(3R)-3-hydroxy-L-leucyl]-L-leucyl-D-arginyl-L-isoleucyl-L-allothreonyl-glycyl-[(3S)-3-hydroxy-L-asparaginyl]-L-serine C^1.11—N^3.3-lactam bistrifluoroacetate] (H-[d(tBuAla)][tBuAla][Phe(βR-NH)][Leu(3R-OH)]L[dR]I[aThr]G[Asn(3S-OH)]S; lactam 3-C)",0.25,0.5,0.063,0.25,,,,
CC[C@H](C)[C@@H]1NC(=O)[C@@H](CCCNC(=N)N)NC(=O)[C@H](CC(C)C)NC(=O)[C@H]([C@H](O)C(C)C)NC(=O)[C@@H](NC(=O)[C@H](Cc2ccc(C(F)(F)F)nc2)NC(=O)[C@H](N)CC(C)(C)C)[C@@H](c2ccccc2)NC(=O)[C@H](CO)NC(=O)[C@H]([C@H](O)C(N)=O)NC(=O)CNC(=O)[C@H]([C@H](C)O)NC1=O.O=C(O)C(F)(F)F.O=C(O)C(F)(F)F [Example 7] (H-[d(tBuAla)][X2][Phe(βR-NH)][Leu(3R-OH)]L[dR]I[aThr]G[Asn(3S-OH)]S; lactam 3-C),,,,,0.25,0.125,0.125,
"CC[C@H](C)[C@@H]1NC(=O)[C@@H](CCCNC(=N)N)NC(=O)[C@H](CC(C)C)NC(=O)[C@H]([C@H](O)C(C)C)NC(=O)[C@@H](NC(=O)[C@H](CC(C)C)NC(=O)[C@H](N)CC(C)C)[C@@H](c2ccccc2)OC(=O)[C@H](CO)NC(=O)[C@H]([C@H](O)C(N)=O)NC(=O)CNC(=O)[C@H]([C@H](C)O)NC1=O [Example 1A, reference compound] (H-[dL]L[Phe(3R-OH)][Leu(3R-OH)]L[dR]I[aThr]G[Asn(3S-OH)]S; ester 3-C)",,,,,0.5,0.5,0.063,0.5
CC[C@H](C)[C@@H]1NC(=O)[C@@H](CCCNC(=N)N)NC(=O)[C@H](CC(C)C)NC(=O)[C@H]([C@H](O)C(C)C)NC(=O)[C@@H](NC(=O)[C@H](Cc2cccc(C)n2)NC(=O)[C@H](N)CC(C)(C)C)[C@@H](c2ccccc2)NC(=O)[C@H](CO)NC(=O)[C@H]([C@H](O)C(N)=O)NC(=O)CNC(=O)[C@H]([C@H](C)O)NC1=O.O=C(O)C(F)(F)F.O=C(O)C(F)(F)F.O=C(O)C(F)(F)F [Example 6] (H-[d(tBuAla)][X1][Phe(βR-NH)][Leu(3R-OH)]L[dR]I[aThr]G[Asn(3S-OH)]S; lactam 3-C),,,,,0.5,0.25,0.25,
CC[C@H](C)[C@@H]1NC(=O)[C@@H](CCCNC(=N)N)NC(=O)[C@H](CC(C)C)NC(=O)[C@H]([C@H](O)C(C)C)NC(=O)[C@@H](NC(=O)[C@H](CC(C)(C)C)NC(=O)[C@H](N)CC(C)C)[C@@H](c2ccccc2)NC(=O)[C@H](CO)NC(=O)[C@H]([C@H](O)C(N)=O)NC(=O)CNC(=O)[C@H]([C@H](C)O)NC1=O.O=C(O)C(F)(F)F.O=C(O)C(F)(F)F [Example 9] (H-[dL][tBuAla][Phe(βR-NH)][Leu(3R-OH)]L[dR]I[aThr]G[Asn(3S-OH)]S; lactam 3-C),,,,,0.5,0.25,0.125,
